In patent publication US20240400564A1 (Syndax Pharmaceuticals, Inc, priority 2021, published 2024):

What was measured:
[1] = test system: MLLr leukemia cell line MV4-11; experiment: Cell proliferation assay MV4;11 (CellTiter-Glo, 72 hours); type: cell-based; details: Homo sapiens; MV4-11 cells, 72 hours, CellTiter-Glo; read-out: MV4; 11 IC50
Method: Compounds were evaluated for its capacity to inhibit the proliferation of the MLLr leukemia cell line MV4-11 that harbors an MLL1-AF4 fusion protein. MV4-11 cells were cultured for 72 hours with limiting dilutions of compounds and viability was measured using CellTiter-Glo.
Compounds were dissolved to obtain as 10 mM solution in DMSO. The stock was diluted 1:5 to the top concentration of 2 mM in 100% DMSO. For IC50 determination, serial 1:3.16 dilutions were prepared in 100% DMSO by diluting 20 μL into 43.5 μL of DMSO for 8 concentrations. Each prepared DMSO solution were further diluted 1:500 in the cell culture media to obtain the 2× dosing solutions. The final concentrations of tested compounds in the cell culture media ranged from 0.632 nM to 2000 nM.
MV4-11 cells were cultured in IMDM with 10% FBS and 1× Penicillin-Streptomycin at 5% CO2 and 37° C. A cell suspension was prepared containing 15,000 cells/ml in the culture medium and 100 μL of this suspension was added per well to a 96-well cell culture plate. Then, 100 μL of 2× dosing media containing test compounds were added bringing the total volume to 200 μL. These cells were cultured for 72 hours at 37° C. and 5% CO2 in a humidified incubator.
After 72 hours, the cultured cells were mixed and 100 μL was transferred to a 96-well black plate. Cell Titer Glo (100 μl) was then added to this plate. The plate was mixed with shaking for 15 mins at RT, the luminescence was then measured using Tecan Spark 20M spectrophotometer. Cell Viability (%) was determined by RLU of test/RLU average vehicle control*100 and % max inhibition was determined by 100−(% cell viability remaining at the top concentration of compound).

[2] = molecular target: hERG (Homo sapiens, UniProt Q12809); experiment: Patch clamp assay (hERG tail currents, whole-cell)
Sequence of hERG (Q12809 whole entry): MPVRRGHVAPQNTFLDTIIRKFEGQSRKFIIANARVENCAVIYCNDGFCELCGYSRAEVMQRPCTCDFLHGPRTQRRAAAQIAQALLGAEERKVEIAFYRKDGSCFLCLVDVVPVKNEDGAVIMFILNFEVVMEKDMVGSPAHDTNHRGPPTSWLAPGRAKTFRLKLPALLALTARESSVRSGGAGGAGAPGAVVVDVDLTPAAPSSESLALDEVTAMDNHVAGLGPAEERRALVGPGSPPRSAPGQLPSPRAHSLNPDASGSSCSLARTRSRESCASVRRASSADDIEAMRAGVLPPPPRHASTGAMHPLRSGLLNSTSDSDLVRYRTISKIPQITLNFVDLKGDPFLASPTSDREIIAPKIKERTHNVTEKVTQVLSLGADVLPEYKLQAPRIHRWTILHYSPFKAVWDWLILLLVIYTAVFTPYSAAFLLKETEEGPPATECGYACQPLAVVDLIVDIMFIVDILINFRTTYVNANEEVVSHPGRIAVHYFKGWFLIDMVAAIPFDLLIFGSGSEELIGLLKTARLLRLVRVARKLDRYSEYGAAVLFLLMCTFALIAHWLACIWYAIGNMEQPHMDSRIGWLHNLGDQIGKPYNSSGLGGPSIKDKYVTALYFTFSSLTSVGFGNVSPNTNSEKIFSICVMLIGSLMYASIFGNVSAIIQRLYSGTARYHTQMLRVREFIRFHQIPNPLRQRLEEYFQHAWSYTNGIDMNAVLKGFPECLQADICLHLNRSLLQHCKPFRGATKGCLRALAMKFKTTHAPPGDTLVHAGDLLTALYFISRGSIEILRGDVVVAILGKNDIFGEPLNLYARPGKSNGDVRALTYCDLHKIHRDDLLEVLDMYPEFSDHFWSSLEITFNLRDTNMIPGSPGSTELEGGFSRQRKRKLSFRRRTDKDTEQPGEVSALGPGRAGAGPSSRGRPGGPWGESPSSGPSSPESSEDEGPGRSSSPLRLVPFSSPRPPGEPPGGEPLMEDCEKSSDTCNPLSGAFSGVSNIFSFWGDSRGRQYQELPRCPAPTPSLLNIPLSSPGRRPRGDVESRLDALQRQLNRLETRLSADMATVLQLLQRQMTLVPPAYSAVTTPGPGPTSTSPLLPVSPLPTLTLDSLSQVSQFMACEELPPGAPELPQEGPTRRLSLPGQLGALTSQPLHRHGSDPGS
Method: The 35 mm culture dishes upon which cells were seeded at a density allowing single cells to be recorded were placed on the dish holder of the microscope and continuously perfused (at approximately 1 mL/min) with the bath solution described in section 4.6. All solutions applied to cells including the pipette solution were maintained at room temperature (19° C. to 30° C.). After formation of a Gigaohm seal between the patch electrodes and individual hERG stably transfected HEK 293 cells (pipette resistance range: 2.0 MS to 7.0 MS; seal resistance range: >1GΩ) the cell membrane across the pipette tip was ruptured to assure electrical access to the cell interior (whole-cell patch-configuration). In case the quality of the seal was poor, the process of seal formation was repeated with a different cell and a new pipette. As soon as a stable seal could be established, hERG outward tail currents were measured upon depolarization of the cell membrane to +20 mV for 2 s (activation of channels) from a holding potential of −80 mV and upon subsequent repolarization to −40 mV for 3 s. This voltage protocol (as shown below) was run at least 10 times at intervals of 10 s. If current density was judged to be too low for measurement, another cell was recorded.
During wash-in of the test item the voltage protocol indicated above was run continuously again at 10 s intervals until the steady-state level of block was reached.
The IC50 was determined by fitting the dose response curve with a 2-parameter logistic function (amax=100%).

Compound	IC50 [1] [nM]	hERG % Remaining ([2]; 30 μM compound)	hERG % Remaining ([2]; 10 μM compound)
CC(C)N(C(=O)c1cc(F)ccc1Oc1cncnc1N1CC2(CCN(C[C@@H]3CC[C@@H](NS(=O)(=O)N4CCC[C@H]4C)CO3)CC2)C1)[C@@H]1CCOC1 [Example 204, 5-Fluoro-N-isopropyl-2-((4-(7-(((2S,5R)-5-(((R)-2-methylpyrrolidine)-1-sulfonamido)tetrahydro-2H-pyran-2-yl)methyl)-2,7-diazaspiro[3.5]nonan-2-yl)pyrimidin-5-yl)oxy)-N-((R)-tetrahydrofuran-3-yl)benzamide]	< 100	–	–
CCS(=O)(=O)N[C@@H]1CC[C@@H](CN2CCC3(CC2)CN(c2ncncc2Oc2ccc(F)cc2C(=O)N(C(C)C)[C@H]2C[C@H](O)C2)C3)OC1 [Example 259, 2-((4-(7-(((2S,5R)-5-(Ethylsulfonamido)tetrahydro-2H-pyran-2-yl)methyl)-2,7-diazaspiro[3.5]nonan-2-yl)pyrimidin-5-yl)oxy)-5-fluoro-N-((1r,3r)-3-hydroxycyclobutyl)-N-isopropylbenzamide]	< 100	–	–
CC(C)N(C(=O)c1cc(F)ccc1Oc1cncnc1N1CC2(CCN(C[C@@H]3CC[C@@H](NS(=O)(=O)C4CCOCC4)CO3)CC2)C1)C(C)C [Example 79]	< 100	–	–
CC(C)N(C(=O)c1cc(F)ccc1Oc1cncnc1N1CC2(CCN(C[C@@H]3CC[C@@H](N[S@@](=N)(=O)c4ccccc4)CO3)CC2)C1)C(C)C (single isomer, unassigned) [Example 229]	< 100	–	–
CC(C)N(C(=O)c1cc(F)ccc1Oc1cncnc1N1CC2(CCN(C[C@@H]3CC[C@@H](N[S@](=N)(=O)c4ccccc4)CO3)CC2)C1)C(C)C (single isomer, unassigned) [Example 230]	< 100	–	–
CC(C)N(C(=O)c1cc(F)ccc1Oc1cncnc1N1CC2(CCN(C[C@@H]3CC[C@@H](NS(=O)(=O)N(C)C)CO3)CC2)C1)C1COC1 [Example 249, 2-((4-(7-(((2S,5R)-5-((N,N-Dimethylsulfamoyl)amino)tetrahydro-2H-pyran-2-yl)methyl)-2,7-diazaspiro[3.5]nonan-2-yl)pyrimidin-5-yl)oxy)-5-fluoro-N-isopropyl-N-(oxetan-3-yl)benzamide]	–	+++ (≥66%)	–
CC(C)N(C(=O)c1cc(F)ccc1Oc1cncnc1N1CC2(CCN(C[C@@H]3CC[C@@H](NS(=O)(=O)N4CCC4)CO3)CC2)C1)C1CC(F)(F)C1 [Example 118, 2-((4-(7-(((2S,5R)-5-(Azetidine-1-sulfonamido)tetrahydro-2H-pyran-2-yl)methyl)-2,7-diazaspiro[3.5]nonan-2-yl)pyrimidin-5-yl)oxy)-N-(3,3-difluorocyclobutyl)-5-fluoro-N-isopropylbenzamide]	–	+ (<33%)	++ (233% and ≤66%)
CCNS(=O)(=O)N[C@@H]1CC[C@@H](CN2CCC3(CC2)CN(c2ncncc2Oc2ccc(F)cc2C(=O)N2[C@H](C)COC[C@H]2C)C3)OC1 [Example 125, {[(3R,6S)-6-{[2-(5-{2-[(3R,5R)-3,5-Dimethylmorpholine-4-carbonyl]-4-fluorophenoxy}pyrimidin-4-yl)-2,7-diazaspiro[3.5]nonan-7-yl]methyl}oxan-3-yl]sulfamoyl}(ethyl)amine]	–	+++ (≥66%)	–
CC(C)N(C(=O)c1cc(F)ccc1Oc1cncnc1N1CC2(CCN(C[C@@H]3CC[C@@H](NS(=O)(=O)N(C)C(C)C)CO3)CC2)C1)C(C)C [Example 89, 5-Fluoro-N,N-diisopropyl-2-((4-(7-(((2S,5R)-5-((N-isopropyl-N-methylsulfamoyl)amino)tetrahydro-2H-pyran-2-yl)methyl)-2,7-diazaspiro[3.5]nonan-2-yl)pyrimidin-5-yl)oxy)benzamide]	–	++ (233% and ≤66%)	–
CCN(C(=O)c1cc(F)ccc1Oc1cncnc1N1CC2(CCN(C[C@@H]3CC[C@@H](NS(=O)(=O)c4ccccc4OC)CO3)CC2)C1)C(C)C [Example 65, N-Ethyl-5-fluoro-N-isopropyl-2-((4-(7-(((2S,5R)-5-((2-methoxyphenyl)sulfonamido)tetrahydro-2H-pyran-2-yl)methyl)-2,7-diazaspiro[3.5]nonan-2-yl)pyrimidin-5-yl)oxy)benzamide]	–	+ (<33%)	++ (233% and ≤66%)
CC(C)N(CC#N)C(=O)c1cc(F)ccc1Oc1cncnc1N1CC2(CCN(C[C@@H]3CC[C@@H](NS(=O)(=O)N4CCC4)CO3)CC2)C1 [Example 182, 2-((4-(7-(((2S,5R)-5-(Azetidine-1-sulfonamido)tetrahydro-2H-pyran-2-yl)methyl)-2,7-diazaspiro[3.5]nonan-2-yl)pyrimidin-5-yl)oxy)-N-(cyanomethyl)-5-fluoro-N-isopropylbenzamide]	–	+++ (≥66%)	–
CCNS(=O)(=O)N[C@@H]1CC[C@@H](CN2CCC3(CC2)CN(c2ncncc2Oc2ccc(F)cc2C(=O)N(C(C)C)C2CC2)C3)OC1 [Example 145, N-Cyclopropyl-2-((4-(7-(((2S,5R)-5-((N-ethylsulfamoyl)amino)tetrahydro-2H-pyran-2-yl)methyl)-2,7-diazaspiro[3.5]nonan-2-yl)pyrimidin-5-yl)oxy)-5-fluoro-N-isopropylbenzamide]	–	+++ (≥66%)	–
C[C@@H]1COC[C@@H](C)N1C(=O)c1cc(F)ccc1Oc1cncnc1N1CC2(CCN(C[C@@H]3CC[C@@H](NS(=O)(=O)c4ccccc4)CO3)CC2)C1 [Example 120, N-((3R,6S)-6-((2-(5-(2-((3R,5R)-3,5-Dimethylmorpholine-4-carbonyl)-4-fluorophenoxy)pyrimidin-4-yl)-2,7-diazaspiro[3.5]nonan-7-yl)methyl)tetrahydro-2H-pyran-3-yl)benzenesulfonamide]	–	++ (233% and ≤66%)	+++ (≥66%)
CCNS(=O)(=O)N[C@@H]1CC[C@@H](CN2CCC3(CC2)CN(c2ncncc2Oc2ccc(F)cc2C(=O)N(CC(F)F)C(C)C)C3)OC1 [Example 147, N-(2,2-Difluoroethyl)-2-((4-(7-(((2S,5R)-5-((N-ethylsulfamoyl)amino)tetrahydro-2H-pyran-2-yl)methyl)-2,7-diazaspiro[3.5]nonan-2-yl)pyrimidin-5-yl)oxy)-5-fluoro-N-isopropylbenzamide]	–	+++ (≥66%)	+++ (≥66%)
CCNS(=O)(=O)N[C@@H]1CC[C@@H](CN2CCC3(CC2)CN(c2ncncc2Oc2ccc(F)cc2C(=O)N(C(C)C)C2CC(F)(F)C2)C3)OC1 [Example 155, N-(3,3-Difluorocyclobutyl)-2-((4-(7-(((2S,5R)-5-((N-ethylsulfamoyl)amino)tetrahydro-2H-pyran-2-yl)methyl)-2,7-diazaspiro[3.5]nonan-2-yl)pyrimidin-5-yl)oxy)-5-fluoro-N-isopropylbenzamide]	–	++ (233% and ≤66%)	+++ (≥66%)
CCN(C(=O)c1cc(F)ccc1Oc1cncnc1N1CC2(CCN(C[C@@H]3CC[C@@H](NS(=O)(=O)c4ccccn4)CO3)CC2)C1)C(C)C [Example 58, N-ethyl-5-fluoro-N-isopropyl-2-((4-(7-(((2S,5R)-5-(pyridine-2-sulfonamido)tetrahydro-2H-pyran-2-yl)methyl)-2,7-diazaspiro[3.5]nonan-2-yl)pyrimidin-5-yl)oxy)benzamide]	–	++ (233% and ≤66%)	+++ (≥66%)
CC(C)N(CCC#N)C(=O)c1cc(F)ccc1Oc1cncnc1N1CC2(CCN(C[C@@H]3CC[C@@H](NS(=O)(=O)c4ccccc4)CO3)CC2)C1 [Example 136, N-(2-Cyanoethyl)-5-fluoro-N-isopropyl-2-((4-(7-(((2S,5R)-5-(phenylsulfonamido)tetrahydro-2H-pyran-2-yl)methyl)-2,7-diazaspiro[3.5]nonan-2-yl)pyrimidin-5-yl)oxy)benzamide]	–	+ (<33%)	+++ (≥66%)
CCN(C(=O)c1cc(F)ccc1Oc1cncnc1N1CC2(CCN(C[C@@H]3CC[C@@H](NS(=O)(=O)N4CCOCC4)CO3)CC2)C1)C(C)C [Example 64, N-Ethyl-5-fluoro-N-isopropyl-2-((4-(7-(((2S,5R)-5-(morpholine-4-sulfonamido)tetrahydro-2H-pyran-2-yl)methyl)-2,7-diazaspiro[3.5]nonan-2-yl)pyrimidin-5-yl)oxy)benzamide]	–	++ (233% and ≤66%)	+++ (≥66%)
CCN(CC)S(=O)(=O)N[C@@H]1CC[C@@H](CN2CCC3(CC2)CN(c2ncncc2Oc2ccc(F)cc2C(=O)N(C(C)C)C2CC(F)(F)C2)C3)OC1 [Example 114, 2-((4-(7-(((2S,5R)-5-((N,N-Diethylsulfamoyl)amino)tetrahydro-2H-pyran-2-yl)methyl)-2,7-diazaspiro[3.5]nonan-2-yl)pyrimidin-5-yl)oxy)-N-(3,3-difluorocyclobutyl)-5-fluoro-N-isopropylbenzamide]	–	+ (<33%)	+ (<33%)
